Reference: PubChem BioAssay (NCI)
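Cells were grown in 96-well plates and exposed to each compound for 48 hours at five concentrations; endpoints were interpolated linearly between bracketing concentrations, or set to the highest concentration if not reached. GI50 is the concentration that inhibits growth by half. TGI denotes the concentration required for complete inhibition of growth.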

What was measured:
Test in all cases: NCI-60 cell line screen, 48 h
[1] = tested on: HL-60(TB) leukemia
[2] = tested on: SNB-75 CNS
[3] = tested on: SW-620 colon
[4] = tested on: CAKI-1 renal
[5] = tested on: MALME-3M melanoma
[6] = tested on: U251 CNS
[7] = tested on: TK-10 renal
[8] = tested on: RPMI-8226 leukemia
[9] = tested on: UACC-62 melanoma
[10] = tested on: EKVX NSCLC

Row | SMILES | TGI [1] [µM] | TGI [2] [µM] | TGI [3] [µM] | TGI [4] [µM] | TGI [5] [µM] | TGI [6] [µM] | TGI [7] [µM] | TGI [8] [µM] | TGI [9] [µM] | TGI [10] [µM] | GI50 [1] [µM] | GI50 [2] [µM] | GI50 [3] [µM] | GI50 [4] [µM] | GI50 [5] [µM] | GI50 [6] [µM] | GI50 [7] [µM] | GI50 [8] [µM] | GI50 [9] [µM] | GI50 [10] [µM]
1 | N#CC(NNC(=O)Cc1ccccc1)c1c(O)ccc2ccccc12 (stereo not given) | > 46 | 45 | > 100 | 25.8 | 30.2 | 45 | 80.4 | > 60.1 | 12 | 65.6 | – | – | – | – | – | – | – | – | – | –
2 | Cn1c2c(c3ccccc31)CC1c3c(c4ccccc4n3C)CC21 (stereo not given) | > 100 | > 100 | > 100 | > 100 | > 100 | > 100 | > 100 | > 100 | > 100 | > 100 | – | – | – | – | – | – | – | – | – | –
3 | NS(=O)(=O)c1ccc(NC2(C(=O)O)CCCC2)cc1 | > 100 | > 100 | > 100 | > 100 | > 100 | > 100 | > 100 | > 100 | > 100 | > 100 | – | – | – | – | – | – | – | – | – | –
4 | CC(C)C(Nc1c2ccccc2nc2ccccc12)C(=O)O (stereo not given) | > 100 | > 100 | > 100 | > 100 | > 100 | > 100 | > 100 | > 100 | > 100 | > 100 | – | – | – | – | – | – | – | – | – | –
5 | COc1cc(C=C2C(=O)NC(=O)NC2=O)cc(OC)c1OC | > 100 | > 100 | > 100 | > 100 | > 100 | > 100 | > 100 | > 100 | > 100 | > 100 | – | – | – | – | – | – | – | – | – | –
6 | O=C(O)C1OC(n2cc(F)c(=O)[nH]c2=O)CC1O (stereo not given) | > 100 | > 100 | > 100 | > 100 | > 100 | > 100 | > 100 | > 100 | > 80.5 | > 100 | – | – | – | – | – | – | – | – | – | –
7 | COc1cc2c(cc1OC)C(CC(=O)NN=C(C)C)NCC2 (stereo not given) | > 100 | > 100 | > 100 | > 100 | > 100 | > 100 | > 100 | > 100 | > 100 | > 100 | – | – | – | – | – | – | – | – | – | –
8 | O=C(Cc1ccccc1)NN1C(=O)C(Cl)C1c1cc(Br)ccc1O (stereo not given) | 13.6 | 34.4 | > 100 | 60.7 | > 100 | 32.6 | > 100 | > 100 | 30.7 | 23.9 | – | – | – | – | – | – | – | – | – | –
9 | Cc1nc(N)sc1C(=O)/C=C\c1ccc2c(c1)OCO2 | > 100 | > 100 | > 100 | > 100 | > 100 | > 100 | > 100 | > 100 | > 100 | > 100 | – | – | – | – | – | – | – | – | – | –
10 | Cn1c(=O)c(C(c2ccc([N+](=O)[O-])cc2)c2c(O)c3ccccc3n(C)c2=O)cc2ccccc21 (stereo not given) | > 100 | 85.1 | > 100 | > 100 | 73.2 | 66.8 | 84.7 | > 100 | 42.3 | > 100 | – | – | – | – | – | – | – | – | – | –
11 | CN1CCN(CCCOc2ccc3nc(Nc4ccc(Cl)c(C(F)(F)F)c4)ccc3c2)CC1 | 31.1 | 20.5 | 22.1 | 28.4 | 28.4 | 26.2 | 32.8 | 34.2 | 31.7 | 29.1 | 13.9 | 7.09 | 8.97 | 14.9 | 11.3 | 12.5 | 18.3 | 14.3 | 16.4 | 15
12 | COC1=CC(=O)c2nc(-c3cccc(C)n3)[nH]c2C1=O | > 100 | 43.6 | 54.8 | 54.9 | 64.3 | 41.7 | 40.2 | > 100 | > 100 | > 100 | 76.4 | 21.2 | 21.4 | 22 | 20.8 | 20.4 | 19.4 | 27 | 30.3 | 34.8
13 | COc1cc(C(C)O)c[n+](CCc2c[nH]c3ccccc23)c1 (stereo not given) | > 100 | > 100 | > 100 | > 100 | > 100 | > 100 | > 100 | > 100 | > 100 | > 100 | – | – | – | – | – | – | – | – | – | –
14 | COC(=O)[C@H](C)NC(=O)NC(=O)NC(=O)CI | 4.51 | 30.3 | 34.4 | 6.73 | 5.13 | 31.4 | 30.6 | 18.3 | 34.2 | 32 | 2.15 | 15.9 | 16.5 | 2.53 | 2.07 | 17.3 | 16.9 | 3.64 | 16.8 | 17.5
15 | CCOc1ccccc1N=Nc1ccc2oc(=O)c(C(=O)Nc3cccc(C)c3)cc2c1 | 63.3 | > 100 | > 100 | > 100 | > 100 | 81.2 | > 100 | > 100 | > 100 | 95.2 | – | – | – | – | – | – | – | – | – | –
16 | COc1ccc(/C=C/c2ccnc3ccccc23)c(OC)c1 | 6.91 | > 10 | > 10 | > 10 | > 10 | > 10 | > 10 | > 10 | > 10 | > 10 | – | – | – | – | – | – | – | – | – | –
17 | C=C1C(=O)O[C@H]2[C@H]1CC/C(COC(=O)C(=O)c1cn(Cc3ccccc3)c3ccccc13)=C\CC[C@@]1(C)O[C@@H]21 | 7 | 8.4 | 7.77 | 34.5 | 4.39 | 14.7 | 5.47 | 8.04 | 4.42 | 5.96 | 2.26 | 1.83 | 2.33 | 2.96 | 2.08 | 4.01 | 2.33 | 2.09 | 1.8 | 2.06
18 | COC(=O)C1=CNC=C(C(=O)OC)C1C1=CC(=O)C(C)=CC1=O | 5.88 | 42 | 22.2 | 19.4 | 27.5 | 32.1 | 15.5 | 7.5 | 26.5 | 30 | 1.71 | 16 | 8.43 | 6.71 | 14.1 | 16.5 | 6.2 | 2.9 | 13.6 | 16.3
